{"source": "ChEMBL document CHEMBL5042493", "about": "“Enhancing monoamine oxidase B inhibitory activity via chiral fluorination: Structure-activity relationship, biological evaluation, and molecular docking study” (Eur J Med Chem, 2022)", "key": {"[1]": {"experiment": "Half life in Cynomolgus monkey at 1 mg/kg, iv measured upto 24 hrs", "format": "ADME, organism-based, Macaca fascicularis", "settings": "in vivo"}, "[2]": {"experiment": "Cmax in Sprague dawley rat at 1 mg/kg, iv measured upto 24 hrs", "format": "ADME, organism-based", "design": "route intravenous, dose 1 mg/kg, time <=24", "settings": "in vivo"}, "[3]": {"molecular_target": "Cytochrome P450 3A5 (Homo sapiens, UniProt P20815)", "sequence (P20815 whole entry)": "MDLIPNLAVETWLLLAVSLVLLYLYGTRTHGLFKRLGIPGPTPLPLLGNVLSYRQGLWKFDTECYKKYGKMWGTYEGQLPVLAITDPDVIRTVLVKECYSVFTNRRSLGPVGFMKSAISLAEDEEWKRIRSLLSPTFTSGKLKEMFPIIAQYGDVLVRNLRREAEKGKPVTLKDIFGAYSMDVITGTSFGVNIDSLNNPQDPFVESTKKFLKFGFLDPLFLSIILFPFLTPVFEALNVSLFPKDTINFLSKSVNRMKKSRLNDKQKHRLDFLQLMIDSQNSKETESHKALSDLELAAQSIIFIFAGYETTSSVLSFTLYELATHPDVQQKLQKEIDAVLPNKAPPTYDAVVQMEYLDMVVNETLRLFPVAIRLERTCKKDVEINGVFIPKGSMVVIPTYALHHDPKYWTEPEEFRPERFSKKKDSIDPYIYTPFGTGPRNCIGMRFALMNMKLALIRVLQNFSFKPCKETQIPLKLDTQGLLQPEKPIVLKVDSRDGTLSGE", "experiment": "Inhibition of human CYP3A5 preincubated for 10 min followed by addition of NADPH and measured after 5 min by LC-MS/MS analysis", "format": "ADME"}, "[4]": {"experiment": "Plasma protein binding in dog assessed as unbound fraction at 1 uM measured after 5 hrs by LC-MS/MS analysis", "format": "ADME, cell-free, Canis lupus familiaris"}, "[5]": {"species_on_record": "Homo sapiens", "experiment": "Selectivity index, ratio of IC50 for recombinant human MAO-A expressed in Sf9 cells to IC50 for recombinant human MAO-B expressed in Sf9 cells"}, "[6]": {"experiment": "Cmax in Sprague dawley rat at 5 mg/kg, po measured upto 24 hrs", "format": "ADME, organism-based", "design": "route oral, dose 5 mg/kg, time <=24", "settings": "in vivo"}, "[7]": {"molecular_target": "T1, Cytochrome P450 2B6 (Homo sapiens, UniProt P20813)", "T1 sequence (P20813 whole entry)": "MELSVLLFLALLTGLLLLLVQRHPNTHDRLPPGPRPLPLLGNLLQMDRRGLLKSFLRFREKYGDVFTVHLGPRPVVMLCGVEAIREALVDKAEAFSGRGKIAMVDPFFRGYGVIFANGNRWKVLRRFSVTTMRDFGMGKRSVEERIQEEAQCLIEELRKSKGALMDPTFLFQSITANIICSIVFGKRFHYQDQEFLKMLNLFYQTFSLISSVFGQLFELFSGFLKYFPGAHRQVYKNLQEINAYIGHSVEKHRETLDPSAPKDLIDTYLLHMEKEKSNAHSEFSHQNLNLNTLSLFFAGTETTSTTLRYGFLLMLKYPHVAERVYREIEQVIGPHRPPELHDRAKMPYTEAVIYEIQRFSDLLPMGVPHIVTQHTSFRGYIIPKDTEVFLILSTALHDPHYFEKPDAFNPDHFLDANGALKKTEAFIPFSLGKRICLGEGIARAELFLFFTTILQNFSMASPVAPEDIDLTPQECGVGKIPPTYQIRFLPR", "experiment": "Inhibition of human CYP2B6 preincubated for 10 min followed by addition of NADPH and measured after 10 min by LC-MS/MS analysis", "format": "ADME"}, "[8]": {"molecular_target": "5-hydroxytryptamine receptor 2B (Homo sapiens) (UniProt P41595)", "sequence (P41595 whole entry)": "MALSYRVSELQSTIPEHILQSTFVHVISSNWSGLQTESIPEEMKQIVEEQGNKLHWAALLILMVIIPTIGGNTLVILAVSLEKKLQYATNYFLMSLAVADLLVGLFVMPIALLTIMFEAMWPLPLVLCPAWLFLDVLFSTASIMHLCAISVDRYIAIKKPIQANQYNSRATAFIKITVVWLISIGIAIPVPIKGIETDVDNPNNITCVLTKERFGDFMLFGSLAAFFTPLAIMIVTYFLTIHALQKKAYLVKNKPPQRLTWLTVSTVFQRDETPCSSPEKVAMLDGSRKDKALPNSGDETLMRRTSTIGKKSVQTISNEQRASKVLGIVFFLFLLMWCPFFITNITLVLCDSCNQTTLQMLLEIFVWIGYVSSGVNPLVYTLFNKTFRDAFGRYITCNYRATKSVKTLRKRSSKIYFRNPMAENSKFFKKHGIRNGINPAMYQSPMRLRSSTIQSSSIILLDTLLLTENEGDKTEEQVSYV", "experiment": "Binding affinity to 5-HT2B receptor (unknown origin) expressed in CHO-K1 cells", "format": "cell-based", "settings": "concentration not given here"}, "[9]": {"experiment": "Plasma protein binding in mouse assessed as unbound fraction at 1 uM measured after 5 hrs by LC-MS/MS analysis", "format": "ADME, cell-free"}, "[10]": {"molecular_target": "hERG (KCNH2) (Homo sapiens, UniProt Q12809)", "sequence (Q12809 whole entry)": "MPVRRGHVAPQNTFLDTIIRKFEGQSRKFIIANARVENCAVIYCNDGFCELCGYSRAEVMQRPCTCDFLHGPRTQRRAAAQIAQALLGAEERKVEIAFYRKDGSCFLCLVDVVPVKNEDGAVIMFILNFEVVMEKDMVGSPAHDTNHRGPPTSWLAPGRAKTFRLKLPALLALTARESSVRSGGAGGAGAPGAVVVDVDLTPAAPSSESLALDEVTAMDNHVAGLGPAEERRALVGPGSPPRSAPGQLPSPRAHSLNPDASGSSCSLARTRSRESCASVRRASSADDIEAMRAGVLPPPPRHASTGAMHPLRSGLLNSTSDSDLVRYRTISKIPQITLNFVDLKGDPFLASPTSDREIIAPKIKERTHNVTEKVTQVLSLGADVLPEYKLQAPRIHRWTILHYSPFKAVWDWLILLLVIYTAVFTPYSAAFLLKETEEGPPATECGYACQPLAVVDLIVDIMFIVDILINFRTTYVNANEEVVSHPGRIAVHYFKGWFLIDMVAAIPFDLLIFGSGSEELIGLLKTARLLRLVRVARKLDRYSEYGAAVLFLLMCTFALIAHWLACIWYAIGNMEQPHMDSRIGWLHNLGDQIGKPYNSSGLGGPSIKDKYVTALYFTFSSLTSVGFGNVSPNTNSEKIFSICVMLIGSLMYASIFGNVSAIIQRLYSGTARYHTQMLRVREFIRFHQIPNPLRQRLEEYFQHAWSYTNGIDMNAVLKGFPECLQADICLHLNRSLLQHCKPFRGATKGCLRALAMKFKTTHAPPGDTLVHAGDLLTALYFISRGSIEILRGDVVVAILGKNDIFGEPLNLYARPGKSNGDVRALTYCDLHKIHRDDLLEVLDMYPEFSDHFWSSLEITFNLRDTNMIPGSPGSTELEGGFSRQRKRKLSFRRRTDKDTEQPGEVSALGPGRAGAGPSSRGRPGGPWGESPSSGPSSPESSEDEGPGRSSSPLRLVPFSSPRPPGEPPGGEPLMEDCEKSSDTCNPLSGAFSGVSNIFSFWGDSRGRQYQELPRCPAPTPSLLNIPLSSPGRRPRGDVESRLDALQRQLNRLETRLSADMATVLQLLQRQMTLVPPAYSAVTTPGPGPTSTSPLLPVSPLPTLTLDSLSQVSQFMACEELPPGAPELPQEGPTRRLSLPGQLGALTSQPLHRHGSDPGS", "experiment": "Inhibition of human ERG expressed in CHO-K1 cells by Patch Clamp method", "format": "toxicity, cell-based", "settings": "CHO-K1 cells expressing human ERG"}, "[11]": {"experiment": "Clearance in Cynomolgus monkey rat at 1 mg/kg, iv measured upto 24 hrs", "format": "ADME, organism-based, Macaca fascicularis", "settings": "in vivo"}, "[12]": {"experiment": "Apparent permeability in MDCK-MDR1 cells from apical to basal side at 10 uM", "format": "ADME, cell-based, Canis lupus familiaris", "settings": "dog"}, "[13]": {"experiment": "Metabolic stability in monkey liver microsome assessed as half life at 1 uM measured after 60 min in presence of NADPH by LC-MS/MS analysis", "format": "ADME, Macaca mulatta", "settings": "rhesus monkey, liver microsomes"}, "[14]": {"experiment": "Oral bioavailability in Sprague dawley rat at 5 mg/kg measured upto 24 hrs", "format": "ADME, organism-based", "settings": "in vivo"}, "[15]": {"experiment": "Half life in Cynomolgus monkey rat at 5 mg/kg, po measured upto 24 hrs", "format": "ADME, organism-based, Macaca fascicularis", "settings": "in vivo"}, "[16]": {"system": "Mus musculus", "experiment": "In vivo inhibition of MAO-B in ICR mouse brain at 0.4 to 2 mg/kg, ip administered once a week for 21 days by fluorescence based monoamine oxidase assay", "format": "functional, organism-based", "settings": "dose 0.4-2 mg/kg, time 21.0 day"}, "[17]": {"experiment": "Volume of distribution at steady state in Sprague dawley rat at 1 mg/kg, iv measured upto 24 hrs", "format": "ADME, organism-based", "settings": "in vivo, read-out: Vdss"}, "[18]": {"molecular_target": "Cytochrome P450 2D6 (Homo sapiens, UniProt P10635)", "sequence (P10635 whole entry)": "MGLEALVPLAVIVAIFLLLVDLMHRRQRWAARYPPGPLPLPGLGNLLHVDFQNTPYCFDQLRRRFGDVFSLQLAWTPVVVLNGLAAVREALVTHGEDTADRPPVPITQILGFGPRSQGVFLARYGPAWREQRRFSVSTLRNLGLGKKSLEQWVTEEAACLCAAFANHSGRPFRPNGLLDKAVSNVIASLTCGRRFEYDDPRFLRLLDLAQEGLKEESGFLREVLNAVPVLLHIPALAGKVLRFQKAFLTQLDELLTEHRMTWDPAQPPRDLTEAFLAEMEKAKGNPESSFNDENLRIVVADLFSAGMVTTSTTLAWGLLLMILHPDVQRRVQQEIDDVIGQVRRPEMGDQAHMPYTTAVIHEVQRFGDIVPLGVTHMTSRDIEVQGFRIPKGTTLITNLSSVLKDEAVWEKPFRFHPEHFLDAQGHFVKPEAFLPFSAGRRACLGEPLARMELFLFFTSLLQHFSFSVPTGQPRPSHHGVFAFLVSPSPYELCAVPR", "experiment": "Inhibition of human CYP2D6 preincubated for 10 min followed by addition of NADPH and measured after 10 min by LC-MS/MS analysis", "format": "ADME"}, "[19]": {"system": "Salmonella typhimurium", "experiment": "Genotoxicity in Salmonella typhimurium by Ames test", "format": "toxicity, organism-based", "settings": "salmonella enterica subsp. enterica serovar typhimurium"}, "[20]": {"experiment": "Metabolic stability in rat liver microsome assessed as half life at 1 uM measured after 60 min in presence of NADPH by LC-MS/MS analysis", "format": "ADME", "settings": "liver microsomes"}, "[21]": {"experiment": "Oral bioavailability in Cynomolgus monkey rat at 5 mg/kg measured upto 24 hrs", "format": "ADME, organism-based, Macaca fascicularis", "settings": "in vivo"}, "[22]": {"experiment": "Plasma protein binding in monkey assessed as unbound fraction at 1 uM measured after 5 hrs by LC-MS/MS analysis", "format": "ADME, cell-free, Macaca mulatta", "settings": "rhesus monkey"}, "[23]": {"experiment": "Apparent permeability in MDCK-MDR1 cells from basal to apical side at 10 uM", "format": "ADME, cell-based, Canis lupus familiaris", "settings": "dog"}, "[24]": {"experiment": "Metabolic stability in mouse liver microsome assessed as half life at 1 uM measured after 60 min in presence of NADPH by LC-MS/MS analysis", "format": "ADME", "settings": "liver microsomes"}, "[25]": {"molecular_target": "T2, Cytochrome P450 2C8 (Homo sapiens, UniProt P10632)", "T2 sequence (P10632 whole entry)": "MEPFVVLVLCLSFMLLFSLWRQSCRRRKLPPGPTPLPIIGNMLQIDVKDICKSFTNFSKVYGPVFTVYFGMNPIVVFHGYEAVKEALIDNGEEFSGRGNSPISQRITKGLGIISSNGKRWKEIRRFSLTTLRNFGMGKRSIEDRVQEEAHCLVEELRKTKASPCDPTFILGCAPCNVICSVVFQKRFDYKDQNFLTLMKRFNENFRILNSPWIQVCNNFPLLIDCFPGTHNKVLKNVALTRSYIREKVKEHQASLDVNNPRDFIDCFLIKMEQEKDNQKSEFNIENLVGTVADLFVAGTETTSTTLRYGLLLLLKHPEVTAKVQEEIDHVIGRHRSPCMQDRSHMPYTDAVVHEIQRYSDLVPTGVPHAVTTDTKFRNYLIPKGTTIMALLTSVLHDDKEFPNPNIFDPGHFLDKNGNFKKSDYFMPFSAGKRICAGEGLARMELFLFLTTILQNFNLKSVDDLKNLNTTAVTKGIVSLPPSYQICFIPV", "experiment": "Inhibition of human CYP2C8 preincubated for 10 min followed by addition of NADPH and measured after 45 min by LC-MS/MS analysis", "format": "ADME"}, "[26]": {"system": "Mus musculus", "experiment": "Neuroprotective activity against MPTP-induced C57BL/6 mouse model of Parkinson's disease assessed as increase in DA level in striatum at 0.625 to 2.5 mg/kg, ip pretreated for 15 mins followed by MPTP challenge and measured after 8 days post MPTP challenge by HPLC electrochemical detection method", "format": "functional, organism-based", "settings": "dose 0.625-2.5 mg/kg, time 8.0 day"}, "[27]": {"experiment": "Volume of distribution at steady state in Cynomolgus monkey at 1 mg/kg, iv measured upto 24 hrs", "format": "ADME, organism-based, Macaca fascicularis", "settings": "in vivo, read-out: Vdss"}, "[28]": {"experiment": "Half life in Sprague dawley rat at 5 mg/kg, po measured upto 24 hrs", "format": "ADME, organism-based", "settings": "in vivo"}, "[29]": {"experiment": "Toxicity in MPTP-induced C57BL/6 mouse model of Parkinson's disease assessed as effect on locomotor activity by measuring rearing activity at 0.625 to 1.25 mg/kg, ip pretreated for 15 mins followed by MPTP challenge and measured after 5 days post MPTP challenge", "format": "organism-based", "settings": "in vivo, 120 h, dose 0.625-1.25 mg/kg, time 5 day"}}, "note": "The source made the active and inactive calls. The rule behind the calls is not given here.", "data": [{"smiles": "NC(=O)[C@@H]1C[C@H](F)CN1Cc1ccc(OCc2cccc(F)c2)cc1", "values": [{"measurement": "half-life", "setting": "[1]", "result": 106, "unit": "min"}, {"measurement": "Cmax", "setting": "[2]", "result": 690, "unit": "ng/mL"}, {"measurement": "IC50", "setting": "[3]", "result": "> 29", "unit": "µM"}, {"measurement": "fraction unbound at 5 h, 1 µM", "setting": "[4]", "result": 0.0429}, {"measurement": "Ratio IC50", "setting": "[5]", "result": 2440}, {"measurement": "Cmax", "setting": "[6]", "result": 1000, "unit": "ng/mL"}, {"measurement": "IC50", "setting": "[7]", "result": "> 29", "unit": "µM"}, {"measurement": "inhibition", "setting": "[8]", "result": 57, "unit": "%"}, {"measurement": "fraction unbound at 5 h, 1 µM", "setting": "[9]", "result": 0.0516}, {"measurement": "IC50", "setting": "[10]", "result": "> 30", "unit": "µM"}, {"measurement": "clearance", "setting": "[11]", "result": 7.54, "unit": "mL/min/kg"}, {"measurement": "Papp A→B at 10 µM", "setting": "[12]", "result": 28.9, "unit": "×10⁻⁶ cm/s"}, {"measurement": "half-life at 1 µM", "setting": "[13]", "result": 36.9, "unit": "min"}, {"measurement": "bioavailability", "setting": "[14]", "result": 55.2, "unit": "%"}, {"measurement": "half-life", "setting": "[15]", "result": 168, "unit": "min"}, {"measurement": "inhibition", "setting": "[16]", "result": "Active"}, {"measurement": "Vd", "setting": "[17]", "result": 1.37, "unit": "L/kg"}, {"measurement": "IC50", "setting": "[18]", "result": "> 29", "unit": "µM"}, {"measurement": "Activity", "setting": "[19]", "result": "Non-Toxic"}, {"measurement": "half-life at 1 µM", "setting": "[20]", "result": 11.5, "unit": "min"}, {"measurement": "bioavailability", "setting": "[21]", "result": 107, "unit": "%"}, {"measurement": "fraction unbound at 5 h, 1 µM", "setting": "[22]", "result": 0.0407}, {"measurement": "Papp B→A at 10 µM", "setting": "[23]", "result": 22.8, "unit": "×10⁻⁶ cm/s"}, {"measurement": "half-life at 1 µM", "setting": "[24]", "result": 9.37, "unit": "min"}, {"measurement": "IC50", "setting": "[25]", "result": "> 29", "unit": "µM"}, {"measurement": "Activity", "setting": "[26]", "result": "Active"}, {"measurement": "Vd", "setting": "[27]", "result": 1.06, "unit": "L/kg"}, {"measurement": "half-life", "setting": "[28]", "result": 34.2, "unit": "min"}, {"measurement": "Activity", "setting": "[29]", "result": "Non-Toxic"}]}]}
